Here are results for one compound from US20220217975A1, “GREEN FORMULATION TO REDUCE VOLATILITY AND LEACHING OF PESTICIDES” (POLITECNICO DI TORINO, priority 2019, published 2022).

Converted amounts (≈) assume the structure as drawn. Read-outs that look alike come from different tables or passages of the source.

For series [1] the following is noted: cited from earlier work.
The conditions of series [2]: literature; cited from earlier work.
For series [3] the following is noted: dicamba active ingredient; cited from earlier work.
The nature of series [4]: Volatility test of the active ingredient. In kind it is physicochemical. Particulars: 200 mL deionized water, 92 mg active ingredient, stirred open at 300 rpm, over 4 days, FIG. 6.
Description: The procedure involved the use of three solutions: • Solution A: formulation of the following patent suspended in 200 mL of deionized water; • Solution B: pure dicamba active ingredient, dissolved in 200 mL of deionized water; • Solution C: 200 mL of deionized water.
All the previous solutions were stirred without lids, caps or parafilm that would hinder the evaporation. The characterization took place by sampling the solutions every 24 hours and analysing them with a spectrophotometer. The withdrawn amount was replenished with deionized water.
Some specifications: • the clay suspended in solution A has an active ingredient content by weight of approximately 92 mg; • in order to make a comparison, and therefore to evaluate whether the formulation actually makes the dicamba less volatile, the amount by weight of the active ingredient inserted in solution B is identical to that adsorbed on the clay, that is 92 mg; • the weighing of the solutions, to evaluate the amount of evaporated substance, also includes the contribution of water. […]

Take `COc1c(Cl)ccc(Cl)c1C(=O)O` [dicamba, 3,6-dichloro-2-methoxybenzoic acid]: the solubility in water in series [1] (pH approximately 2 (no pH adjustment)) is around 8 mg/mL (≈ 36.2 mM); in series [1] (pH values higher than 4.1) it was above 250 mg/mL. Besides, in series [2], the “half-life time, most frequently reported values” was “lower than 20 days”. Also, the vapour pressure in series [3] was 2.6·10^−8 atm. Moreover, the “herbicide loss by volatilization (in words)” value in series [4] is “initial rapid volatilization and to a subsequent slow and progressive loss in mass”.
